According to article PMC11067372, “Evaluation of the antiplasmodial efficacy of synthetic 2,5-diphenyloxazole analogs of compounds naturally derived from Oxytropis lanata” (International Journal for Parasitology: Drugs and Drug …, 2024):
Read-outs that look alike come from different tables or passages of the source.

How the values were obtained:
[1] = In vitro toxicity to human cells (cell viability assay); format: cell-based; settings: human foreskin fibroblasts (HFFs), average ± SD, three independent experiments
Experimental: HFF cells are selected for cytotoxicity testing in this study, providing a physiologically relevant model for the evaluation of drug interactions with human cells. […] This designation makes them a suitable model for the investigation of cellular processes and their sensitivity to toxic substances, which is crucial for the early identification of potential adverse effects of drugs during the development process.
(§1) The IC50 or CC50 values were determined from three independent experiments by plotting the logarithmic concentration of the compound against the percent parasite inhibition or cell growth inhibition, respectively. Nonlinear regression analysis was conducted using GraphPad Prism 10 (GraphPad Software, Inc., La Jolla, CA, USA). Comparisons between groups were evaluated using either one-way or two-way ANOVA followed by Tukey's or Fisher's multiple comparisons tests. A p-value of <0.05 was considered to indicate statistical significance and is denoted by an asterisk or a symbol. The meaning of each symbol is specified in the corresponding figure legend alongside the name of the employed test.

P. falciparum 3D7 = assay: In vitro inhibition of P. falciparum 3D7 (SYBR Green I-based fluorescence assay); format: cell-based, Plasmodium falciparum; set-up: logIC50: unit not given here; settings: for IC50: Plasmodium falciparum; for logIC50: base-10 log-transformed IC50 against P. falciparum 3D7
Experimental: (§2) The cultures were maintained in an incubator under specific conditions: 37 °C under 5% CO2 and 5% O2.
(§3) The D-sorbitol method (CAS: 50-70-4, Wako, Osaka, Japan) was employed to synchronize parasites, resulting in the attainment of ≥90% ring-stage parasites. These synchronized parasites were then utilized for the experiments within a 2-h window. The assay was performed as follows. First, 50 μL of synchronized parasites with 0.5% parasitemia and 2% hematocrit were added to individual wells of a 96-well plate. Then, 50 μL of the test compounds was introduced to each well. […] Wells containing only test compounds and erythrocytes were included for background correction. […] After the designated incubation time, 100 μL of lysis buffer containing 0.02% (v/v) SYBR Green I was added to each well, the contents of the well were mixed by pipetting, and the plate was incubated in the dark at room temperature for 2 h. […] This assay was repeated four times at each concentration, and the resulting inhibitory values represent the average from three independent trials.
as §1, with “A p-value of <0.05 was considered to indicate statistical significance and is denoted by an asterisk or a symbol.” left out

P. falciparum K1 = assay: In vitro inhibition of P. falciparum K1 (SYBR Green I-based fluorescence assay); format: cell-based; settings: Plasmodium falciparum; multidrug-resistant strain K1; 72 h incubation; average ± SD, three independent experiments; read-out: IC50 P. falciparum K1
Experimental: as §2, §3
as §1, with “A p-value of <0.05 was considered to indicate statistical significance and is denoted by an asterisk or a symbol.” left out

[2] = Table S2, P. falciparum 3D7, value used for SAR analysis, read-out: IC50
[3] = chloroquine-sensitive strain 3D7, 72 h incubation, average ± SD, three independent experiments, read-out: IC50 P. falciparum 3D7
[4] = 3D7, Table S1, average of three independent experiments, read-out: IC50 Mean against P. falciparum 3D7

SMILES | IC50 (P. falciparum 3D7; [2]) | IC50 (P. falciparum 3D7; [3]) | IC50 (P. falciparum K1) | IC50 (P. falciparum 3D7; [4]) | CC50 [1] | logIC50 (P. falciparum 3D7; Table S2)
Oc1ccccc1-c1cnc(-c2cccc(O)c2O)o1 [Compound 1, 2-(2′,3′-dihydroxyphenyl)-5-(2″-hydroxyphenyl)oxazole] | 11 µM | 11 ± 2.69 µM | 6.17 ± 3.33 µM | – | 59.6 ± 4.84 µM | 1.042
Oc1ccc(O)c(-c2cnc(-c3ccccc3)o2)c1 [Compound 7, 2-phenyl-5-(2″,5″-hydroxyphenyl)oxazole] | 3.85 µM | 3.85 ± 1.87 µM | 1.65 ± 0.72 µM | – | 54.1 ± 11 µM | 0.5852
Oc1ccc(O)c(-c2cnc(-c3cc(O)ccc3O)o2)c1 [Compound 10, 2-(2′,5′-dihydroxyphenyl)-5-(2″,5″-dihydroxyphenyl)oxazole] | 12.6 µM | 12.7 ± 7.63 µM | 4.94 ± 2.15 µM | – | 39.5 ± 7.45 µM | 1.102
COc1ccc(OC)c(-c2cnc(-c3cc(OC)ccc3OC)o2)c1 [Compound 11] | 15 µM | – | – | 15 µM | – | 1.177
COc1cccc(-c2ncc(-c3ccc4ccccc4c3)o2)c1OC [Compound 14] | 62.4 µM | – | – | 62.4 µM | – | 1.795
COc1cccc(-c2cnc(-c3cccc(OC)c3OC)o2)c1 [Compound 15] | 74.8 µM | – | – | 74.8 µM | – | 1.874
COc1ccc(-c2cnc(-c3cccc(OC)c3OC)o2)cc1 [Compound 16] | – | – | – | 37.9 µM | – | 1.579
COc1cccc(-c2ncc(-c3ccc(OC)c(OC)c3OC)o2)c1OC [Compound 18] | 51.1 µM | – | – | 51.1 µM | – | 1.708
COc1cccc(-c2cnc(-c3cccc(OC)c3)o2)c1 [Compound 19] | – | – | – | 46.3 µM | – | 1.665
COc1ccc(-c2cnc(-c3ccc(OC)cc3)o2)cc1 [Compound 20] | – | – | – | > 200 µM | – | 2.301
COc1cccc(-c2cnc(-c3cccc(OC)c3OC)o2)c1OC [Compound 23] | 12.7 µM | – | – | 12.7 µM | – | 1.104
COc1cccc(-c2cnc(-c3ccc(OC)c(OC)c3OC)o2)c1OC [Compound 24] | – | – | – | 68 µM | – | 1.832
COc1cccc(-c2ncc(-c3ccccc3)o2)c1OC [Compound 25] | – | – | – | 29.9 µM | – | 1.476
COc1cccc(-c2ncc(-c3c(OC)cccc3OC)o2)c1OC [Compound 28] | – | – | – | 125 µM | – | 2.096
COc1cccc(-c2ncc(-c3ccccc3[N+](=O)[O-])o2)c1OC [Compound 36] | 39.6 µM | – | – | 39.6 µM | – | 1.598
COc1cccc(-c2ncc(-c3ccccc3N(C)C)o2)c1OC [Compound 38] | 54.2 µM | – | – | 54.2 µM | – | 1.734
Oc1ccccc1-c1cnc(-c2cccc(O)c2O)s1 [Compound 40] | 3.95 µM | 3.95 ± 1.38 µM | 1.74 ± 0.89 µM | – | 46.3 ± 5.84 µM | 0.597
COc1ccccc1-c1cnc(-c2cccc(OC)c2OC)s1 [Compound 41] | – | – | – | 15.5 µM | – | 1.189
Oc1ccccc1-c1nnc(-c2cccc(O)c2O)o1 [Compound 42] | 9.53 µM | 9.53 ± 3.15 µM | 6.19 ± 2.66 µM | – | 52.5 ± 13.2 µM | 0.9793
COc1ccccc1-c1nnc(-c2cccc(OC)c2OC)o1 [Compound 43] | 16.9 µM | – | – | 16.9 µM | – | 1.228
Oc1ccccc1-c1nnc(-c2cccc(O)c2O)s1 [Compound 44] | 6.41 µM | 6.41 ± 1.16 µM | 3.91 ± 1.45 µM | – | 160 ± 62.3 µM | 0.8066
COc1ccccc1-c1nnc(-c2cccc(OC)c2OC)s1 [Compound 45] | – | – | – | > 200 µM | – | 2.301
COc1ccccc1-c1coc(-c2cccc(OC)c2OC)n1 [Compound 46] | – | – | – | 44.7 µM | – | 1.65
Oc1ccccc1-c1coc(-c2cccc(O)c2O)n1 [Compound 47] | 4.63 µM | 4.63 ± 1.18 µM | 3.13 ± 1.21 µM | – | 71 ± 23.1 µM | 0.6658

Further lines, with some results ahead:

IC50 (P. falciparum 3D7; [2]) | IC50 (P. falciparum 3D7; [3]) | IC50 (P. falciparum K1) | IC50 (P. falciparum 3D7; [4]) | SMILES | CC50 [1] | logIC50 (P. falciparum 3D7; Table S2)
– | – | – | > 200 µM | COc1ccccc1-c1cnc(-c2cccc(OC)c2OC)o1 [Compound 2] | – | 2.301
9.22 µM | 9.22 ± 1.68 µM | 4.7 ± 2.24 µM | – | CC(=O)Oc1ccccc1-c1cnc(-c2cccc(OC(C)=O)c2OC(C)=O)o1 [Compound 3] | 126 ± 31.6 µM | 0.9649
6.2 µM | 6.2 ± 4.23 µM | 3.74 ± 1.47 µM | – | Oc1ccc(O)c(-c2ncc(-c3ccccc3O)o2)c1 [Compound 4, 2-(2′,5′-dihydroxyphenyl)-5-(2″-hydroxyphenyl)oxazole] | 55.4 ± 11.7 µM | 0.7924
– | – | – | > 200 µM | COc1ccc(OC)c(-c2ncc(-c3ccccc3OC)o2)c1 [Compound 5] | – | 2.301
13.4 µM | – | – | 13.4 µM | CC(=O)Oc1ccc(OC(C)=O)c(-c2ncc(-c3ccccc3OC(C)=O)o2)c1 [Compound 6] | – | 1.127
– | – | – | > 200 µM | COc1ccc(OC)c(-c2cnc(-c3ccccc3)o2)c1 [Compound 8] | – | 2.301
3.38 µM | 3.38 ± 1.46 µM | 1.27 ± 0.51 µM | – | CC(=O)Oc1ccc(OC(C)=O)c(-c2cnc(-c3ccccc3)o2)c1 [Compound 9] | 56.7 ± 18.4 µM | 0.5284
10.2 µM | 10.2 ± 4.09 µM | 4.7 ± 1.69 µM | – | CC(=O)Oc1ccc(OC(C)=O)c(-c2cnc(-c3cc(OC(C)=O)ccc3OC(C)=O)o2)c1 [Compound 12] | 67.8 ± 1.39 µM | 1.01
– | – | – | > 200 µM | COc1ccccc1-c1cnc(-c2ccccc2OC)o1 [Compound 13] | – | 2.301
– | – | – | > 200 µM | COc1ccc(OC)c(-c2cnc(-c3cccc(OC)c3OC)o2)c1 [Compound 17] | – | 2.301
19.3 µM | – | – | 19.3 µM | COc1ccc(-c2ncc(-c3ccccc3OC)o2)c(OC)c1 [Compound 21] | – | 1.286
– | – | – | 26.7 µM | COc1ccccc1-c1cnc(-c2c(OC)cccc2OC)o1 [Compound 22] | – | 1.426
– | – | – | > 200 µM | COc1cccc(-c2ncc(-c3ccccc3OC)o2)c1 [Compound 26] | – | 2.301
– | – | – | 106 µM | COc1ccc(OC)c(-c2cnc(-c3ccccc3OC)o2)c1 [Compound 27] | – | 2.027
24.9 µM | – | – | 24.9 µM | COc1ccc(-c2cnc(-c3cccc(OC)c3OC)o2)c(OC)c1 [Compound 29] | – | 1.397
– | – | – | > 200 µM | COc1cccc(-c2ncc(-c3ccccc3C)o2)c1OC [Compound 30] | – | 2.301
18.2 µM | – | – | 18.2 µM | COCOc1ccccc1-c1cnc(-c2cccc(OC)c2OC)o1 [Compound 33] | – | 1.26
– | – | – | > 200 µM | CCOc1ccccc1-c1cnc(-c2cccc(OC)c2OC)o1 [Compound 34] | – | 2.301
27.7 µM | – | – | 27.7 µM | CCCOc1ccccc1-c1cnc(-c2cccc(OC)c2OC)o1 [Compound 35] | – | 1.442
– | – | – | 36.6 µM | COc1cccc(-c2ncc(-c3ccccc3N)o2)c1OC [Compound 37] | – | 1.564
– | – | – | > 200 µM | COc1cccc(-c2ncc(-c3ccccc3NC(C)=O)o2)c1OC [Compound 39] | – | 2.301
